Laboratory results taken from patent publication US20080299193A1, “Pharmaceutical composition comprising eszoplicone” (Lek Pharmaceuticals d.d., priority 2007, published 2008).
Values after ≈ are worked out from the molar mass of the structure shown.

What was measured:
[1] = Stress stability testing at 60° C. for 14 days, impurities by HPLC; format: physicochemical
Method: Tablets comprising eszopiclone with different particle sizes were prepared and exposed to stress stability testing at 60° C. for 14 days, stored in vials. The amount of formed degradation products was compared to the sample of commercially available tablets comprising eszopiclone (Lunesta®).
The HPLC analysis were performed with a WATERS Acquity UPLC system equipped with a UPLC BEH Shield, 1.7 μm, 50×2.1 mm column which was maintained in a column oven at 45° C. The mobile phase consisted of a mixture of ammonium acetate, TEA and acetonitrile with pH=5.8. The flow rate was 1.0 mL/min, and the detection wavelength was 303 nm.
All impurities eluted within 21 minutes represent the total amount of eszopiclone impurities.

[2] = Solubility of eszopiclone in phosphate buffer media at pH 6.8; format: physicochemical
Method: Substance containing larger particles has in general lower surface area which may result in decreased water solubility and consequently in decreased biological activity due to impaired absorption from the gastrointestinal tract. […] The solubility was measured at pH 6.8, which represents the pH in the small intestine, a primary site of drug absorption. Therefore, no effect on the gastrointestinal absorption can be expected due to larger particles of eszopiclone.
The solubility of eszopiclone in phosphate buffer media at pH 6.8 was studied at room temperature. An excess of sample was placed in the laboratory beaker filled with 50 ml media and mixed on the magnetic stirrer for 60 minutes. Afterwards, the part of the dispersion was taken from the beaker, filtered through the 0.45 μm filter and the concentration of eszopiclone was determined by UV spectroscopy.

## CN1CCN(C(=O)O[C@H]2c3nccnc3C(=O)N2c2ccc(Cl)cn2)CC1 [Substance in a crystal form, (+)-5(S)-6-(chloropyridin-2-yik)-7-oxo-6,7-dihydro-5H-pyrrolo[3,4-b]pyrazin-5-yl 4-methylpiperazine-1-carboxylate]
[1]; 60° C. for 14 days
  Stability at elevated temperature (in words): stable
[1]; 14 days, 60° C., stored in vials, all impurities eluted within 21 minutes
  Total sum of impurities: <0.05%
[1]; 14 days, 60° C., stored in vials, maximum unknown impurity
  Max. unknown: <0.05%

## CN1CCN(C(=O)O[C@H]2c3nccnc3C(=O)N2c2ccc(Cl)cn2)CC1 [Eszopiclone with d(0.9) = 32.4 μm]
[2]; phosphate buffer pH 6.8, room temperature, 60 minutes stirring, filtered 0.45 μm, UV spectroscopy
  Solubility at pH 6.8: 0.44 mg/ml

## CN1CCN(C(=O)O[C@H]2c3nccnc3C(=O)N2c2ccc(Cl)cn2)CC1 [Eszopiclone with d(0.9) > 200 μm]
[2]; pH 6.8
  Solubility compared to substance having fine particles (in words): comparable
[2]; phosphate buffer, pH 6.8, aqueous buffer, thermodynamic from solid, phosphate buffer pH 6.8, room temperature, 60 minutes stirring, filtered 0.45 μm, UV spectroscopy
  solubility at 60 min: 570 µg/mL (≈ 1470 µM)
